Source: patent US9249125B2, “Pyrazole derivatives as p38 MAP inhibitors” (RESPIVERT LIMITED, priority 2012, dated 2016)
pEC50, pIC50: −log10 of the molar value.

Key:
p38 MAPKα = p38 MAPKα (Homo sapiens (Human), UniProt Q16539); experiment: p38 MAPKα enzyme inhibition (FRET, Z-LYTE); type: biochemical
cSrc = cSrc (Homo sapiens (Human), UniProt P12931); experiment: c-Src enzyme inhibition (FRET, Z-LYTE); type: biochemical
Outline: (§1)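 Z-LYTE FRET kinase assay: enzyme (3000 or 2000 ng/mL stock, respectively) preincubated 2 h at RT with compound (4–0.004 μg/mL stocks), then FRET peptide plus ATP (800 μM stock for c-Src, 60 μM for Syk) added for 1 h. Protease development 1 h; phosphorylation from coumarin/fluorescein emission ratio.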

Syk = Syk (Homo sapiens (Human), UniProt P43405); experiment: Syk enzyme inhibition (FRET, Z-LYTE); type: biochemical
Outline: as §1

GSK3α = GSK3α (Homo sapiens (Human), UniProt P49840); experiment: GSK 3α enzyme inhibition (FRET, Z-LYTE); type: biochemical
Outline: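 Phosphorylation was read as the donor (coumarin) to acceptor (fluorescein) ratio after a 1 hr protease step destroying non-phosphorylated peptide. Before this, compound (4–0.004 μg/mL stocks) sat 2 hr at RT with GSK3α (500 ng/mL stock), followed by 1 hr kinase reaction with 8 μM peptide and 40 μM ATP stocks.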

[1] = tested on: LPS-induced TNFα release in d-U937 cells; experiment: LPS-induced TNFα release in d-U937 cells; type: cell-based; conditions: Homo sapiens, dU937, relative to 10 μg/mL BIRB796, read-out: LPS Induced Release of Cytokine in d-937 Cells TNFα REC50
Experimental: U937 cells, a human monocytic cell line, are differentiated into macrophage-type cells by incubation with PMA (100 ng/mL) for 48 to 72 hr. Cells are pre-incubated with final concentrations of test compound for 2 hr and are then stimulated with LPS (0.1 μg/mL) (from E. coli: O111:B4, Sigma) for 4 hr. The supernatant is collected for determination of TNFα and IL-8 concentrations by sandwich ELISA (Duo-set, R&D systems). […] The relative 50% effective concentration (REC50) is determined from the resultant concentration-response curve. The inhibition of IL-8 production is calculated at each concentration of test compound by comparison with vehicle control. […] (b) LPS-Induced TNFα/IL-8 Release in PBMC Cells

[2] = tested on: LPS-induced IL-8 release in d-U937 cells; experiment: LPS-induced IL-8 release in d-U937 cells; type: cell-based; conditions: Homo sapiens, dU937, read-out: LPS Induced Release of Cytokine in d-937 Cells IL-8 IC50
Outline: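 Sandwich ELISA of culture supernatant gives TNFα and IL-8 levels after a 4 hr challenge with LPS (0.1 μg/mL, E. coli O111:B4). Before stimulation, macrophage-like U937 cells, obtained by 48–72 hr in PMA at 100 ng/mL, sit with compound for 2 hr. Relative EC50 is derived from concentration-response data.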

[3] = tested on: Poly I:C-induced ICAM-1 expression in BEAS2B cells; experiment: Poly I:C-induced ICAM-1 expression in BEAS2B cells; type: cell-based; conditions: Homo sapiens, BEAS-2B, read-out: Poly IC induced ICAM1 in BEAS2B IC50
Outline: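 Cell-based ELISA read at 450 nm minus 655 nm, divided by crystal violet OD595 to normalize for cell number, gave ICAM-1 levels. Readout was taken 18 hr after poly I:C (1 μg/mL, Oligofectamine) transfection of human bronchial BEAS2B cells pretreated 2 hr with test compound.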

d-U937 cells = experiment: Cell viability: MTT assay; type: cell-based, human; conditions: 1 μg/mL
Outline: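 MTT read-out (1 h, absorbance 550 nm) on d-U937 cells after pre-incubation with 1 or 10 μg/mL compound under two regimes: 4 h, 5% FCS, or 24 h, 10% FCS RPMI1640. Values are percent loss of viability relative to vehicle (0.5% DMSO), so increases are reported as negative.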

Sequence of GSK3α (P49840 whole entry): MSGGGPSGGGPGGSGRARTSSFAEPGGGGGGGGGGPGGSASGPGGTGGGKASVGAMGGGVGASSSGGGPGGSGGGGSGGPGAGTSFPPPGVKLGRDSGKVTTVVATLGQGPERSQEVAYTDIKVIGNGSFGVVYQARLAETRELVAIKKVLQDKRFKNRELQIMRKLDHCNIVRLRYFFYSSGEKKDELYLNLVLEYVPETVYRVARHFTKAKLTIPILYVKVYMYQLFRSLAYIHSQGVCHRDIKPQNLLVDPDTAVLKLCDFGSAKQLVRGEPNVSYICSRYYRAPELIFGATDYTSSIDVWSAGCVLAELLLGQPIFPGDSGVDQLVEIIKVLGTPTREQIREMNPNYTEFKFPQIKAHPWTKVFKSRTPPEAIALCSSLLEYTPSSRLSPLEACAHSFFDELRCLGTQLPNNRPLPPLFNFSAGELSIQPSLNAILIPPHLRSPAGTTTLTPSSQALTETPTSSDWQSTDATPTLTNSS
Sequence of p38 MAPKα (Q16539 whole entry): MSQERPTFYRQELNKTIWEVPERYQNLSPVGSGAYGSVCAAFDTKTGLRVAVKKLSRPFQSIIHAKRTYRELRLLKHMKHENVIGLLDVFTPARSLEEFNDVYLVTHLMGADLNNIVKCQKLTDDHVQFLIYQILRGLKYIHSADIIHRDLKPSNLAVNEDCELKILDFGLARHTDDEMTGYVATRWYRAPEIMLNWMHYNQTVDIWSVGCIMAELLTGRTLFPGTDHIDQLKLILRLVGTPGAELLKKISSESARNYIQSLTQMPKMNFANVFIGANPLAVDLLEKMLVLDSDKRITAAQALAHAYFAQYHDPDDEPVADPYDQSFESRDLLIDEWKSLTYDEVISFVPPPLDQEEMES
Sequence of cSrc (P12931 whole entry, looked up): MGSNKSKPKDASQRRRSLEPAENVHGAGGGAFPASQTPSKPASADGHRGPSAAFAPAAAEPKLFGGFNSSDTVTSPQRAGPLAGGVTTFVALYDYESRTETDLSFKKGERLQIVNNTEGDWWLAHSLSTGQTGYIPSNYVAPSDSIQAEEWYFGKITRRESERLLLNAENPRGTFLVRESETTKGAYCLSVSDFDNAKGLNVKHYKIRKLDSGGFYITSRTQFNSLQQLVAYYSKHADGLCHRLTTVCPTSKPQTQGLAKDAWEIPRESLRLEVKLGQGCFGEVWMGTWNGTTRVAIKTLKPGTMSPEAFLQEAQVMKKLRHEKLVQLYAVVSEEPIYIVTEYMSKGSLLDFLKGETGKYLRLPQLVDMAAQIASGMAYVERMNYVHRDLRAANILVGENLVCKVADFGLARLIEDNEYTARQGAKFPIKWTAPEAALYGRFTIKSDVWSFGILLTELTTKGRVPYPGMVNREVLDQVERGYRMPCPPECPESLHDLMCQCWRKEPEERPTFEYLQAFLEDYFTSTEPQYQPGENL

| SMILES | pIC50 (p38 MAPKα) | pIC50 (cSrc) | pIC50 (Syk) | pIC50 (GSK3α) | pEC50 [1] | pIC50 [2] | pIC50 [3] | MTT Assay Cell viability at time point in d-U937 cells 4 h (d-U937 cells) | MTT Assay Cell viability at time point in d-U937 cells 24 h (d-U937 cells) |
| --- | --- | --- | --- | --- | --- | --- | --- | --- | --- |
| Cc1ccc(-n2nc(C(C)(C)C)cc2NC(=O)Nc2ccc(Oc3ccnc(Nc4ccc5[nH]ccc5c4)n3)c3ccccc23)cc1 [Example 1, 1-(4-((2-((1H-Indol-5-yl)amino)pyrimidin-4-yl)oxy)naphthalen-1-yl)-3-(3-(tert-butyl)-1-(p-tolyl)-1H-pyrazol-5-yl)urea] | 6.73 | 7.68 | 7.30 | < 5.79 | 8.77 | 8.66 | 8.33 | −ve (−ve and +ve indicate that the value is below and above respectively, the no significant effect threshold, defined as 30% inhibition at 1 μg/mL at the time point indicated.) | −ve (−ve and +ve indicate that the value is below and above respectively, the no significant effect threshold, defined as 30% inhibition at 1 μg/mL at the time point indicated.) |
| CC(C)(C)c1cc(NC(=O)Nc2ccc(Oc3ccnc(Nc4ccc5c(c4)CS(=O)(=O)C5)n3)c3ccccc23)n(-c2ccc(OCCN3CCOCC3)cc2)n1 [Example 64, 1-(3-(tert-butyl)-1-(4-(2-morpholinoethoxy)phenyl)-1H-pyrazol-5-yl)-3-(4-((2-((2,2-dioxido-1,3-dihydrobenzo[c]thiophen-5-yl)amino)pyrimidin-4-yl)oxy)naphthalen-1-yl)urea] | 7.17 | 8.52 | 7.70 | 6.36 | 8.96 | 8.89 | 11.00 | −ve (−ve and +ve indicate that the value is below and above respectively, the no significant effect threshold, defined as 30% inhibition at 1 μg/mL at the time point indicated.) | −ve (−ve and +ve indicate that the value is below and above respectively, the no significant effect threshold, defined as 30% inhibition at 1 μg/mL at the time point indicated.) |
| COc1ccc(-n2nc(C(C)(C)C)cc2NC(=O)Nc2ccc(Oc3ccnc(Nc4ccc5[nH]nc(C(=O)N6CCOCC6)c5c4)n3)c3ccccc23)cn1 [Example 83, 1-(3-(tert-butyl)-1-(6-methoxypyridin-3-yl)-1H-pyrazol-5-yl)-3-(4-((2-((3-(morpholine-4-carbonyl)-1H-indazol-5-yl)amino)pyrimidin-4-yl)oxy)naphthalen-1-yl)urea] | 8.00 | 6.97 | 7.20 | 5.42 | 9.15 | 8.06 | 8.54 | −ve (−ve and +ve indicate that the value is below and above respectively, the no significant effect threshold, defined as 30% inhibition at 1 μg/mL at the time point indicated.) | −ve (−ve and +ve indicate that the value is below and above respectively, the no significant effect threshold, defined as 30% inhibition at 1 μg/mL at the time point indicated.) |
| CC(C)(C)c1cc(NC(=O)Nc2ccc(Oc3ccnc(Nc4ccc5c(c4)NC(=O)C5(C)C)n3)c3ccccc23)n(-c2ccc(OCCN3CCOCC3)cc2)n1 [Example 62, 1-(3-(tert-butyl)-1-(4-(2-morpholinoethoxy)phenyl)-1H-pyrazol-5-yl)-3-(4-((2-((3,3-dimethyl-2-oxoindolin-6-yl)amino)pyrimidin-4-yl)oxy)naphthalen-1-yl)urea] | 7.01 | 8.30 | 8.05 | 5.77 | 8.14 | 7.64 | 7.94 | −ve (−ve and +ve indicate that the value is below and above respectively, the no significant effect threshold, defined as 30% inhibition at 1 μg/mL at the time point indicated.) | −ve (−ve and +ve indicate that the value is below and above respectively, the no significant effect threshold, defined as 30% inhibition at 1 μg/mL at the time point indicated.) |
| CC(C)(C)c1cc(NC(=O)Nc2ccc(Oc3ccnc(Nc4ccc5[nH]ccc5c4)n3)c3ccccc23)n(-c2ccc(O)cc2)n1 [Example 37, 1-(4-((2-((1H-indol-5-yl)amino)pyrimidin-4-yl)oxy)naphthalen-1-yl)-3-(3-(tert-butyl)-1-(4-hydroxyphenyl)-1H-pyrazol-5-yl)urea] | 6.48 | 7.80 | 6.85 | < 5.80 | 8.60 | 8.23 | 8.43 | −ve (−ve and +ve indicate that the value is below and above respectively, the no significant effect threshold, defined as 30% inhibition at 1 μg/mL at the time point indicated.) | −ve (−ve and +ve indicate that the value is below and above respectively, the no significant effect threshold, defined as 30% inhibition at 1 μg/mL at the time point indicated.) |
| COc1ccc(-n2nc(C(C)C)cc2NC(=O)Nc2ccc(Oc3cc(Nc4ccc5[nH]ncc5c4)ncn3)c3ccccc23)cc1 [Example 39, 1-(4-((6-((1H-indazol-5-yl)amino)pyrimidin-4-yl)oxy)naphthalen-1-yl)-3-(3-isopropyl-1-(4-methoxyphenyl)-1H-pyrazol-5-yl)urea] | 8.00 | 7.96 | 7.41 | < 4.80 | 8.24 | 7.82 | 6.80 | −ve (−ve and +ve indicate that the value is below and above respectively, the no significant effect threshold, defined as 30% inhibition at 1 μg/mL at the time point indicated.) | −ve (−ve and +ve indicate that the value is below and above respectively, the no significant effect threshold, defined as 30% inhibition at 1 μg/mL at the time point indicated.) |
| Cc1ccc(-n2nc(C(C)(C)C)cc2NC(=O)Nc2ccc(Oc3ccnc(Nc4cnc5[nH]ncc5c4)n3)c3ccccc23)cc1 [Example 6, 1-(4-((2-((1H-Pyrazolo[3,4-b]pyridin-5-yl)amino)pyrimidin-4-yl)oxy)naphthalen-1-yl)-3-(3-(tert-butyl)-1-(p-tolyl)-1H-pyrazol-5-yl)urea] | 6.75 | 7.85 | 6.79 | < 4.80 | 8.80 | 8.28 | 8.77 | −ve (−ve and +ve indicate that the value is below and above respectively, the no significant effect threshold, defined as 30% inhibition at 1 μg/mL at the time point indicated.) | −ve (−ve and +ve indicate that the value is below and above respectively, the no significant effect threshold, defined as 30% inhibition at 1 μg/mL at the time point indicated.) |
| CC(C)(C)c1cc(NC(=O)Nc2ccc(Oc3ccnc(Nc4ccc5[nH]ncc5c4)n3)c3ccccc23)n(-c2ccc(=O)n(CCO)c2)n1 [Example 86, 1-(4-((2-((1H-indazol-5-yl)amino)pyrimidin-4-yl)oxy)naphthalen-1-yl)-3-(3-(tert-butyl)-1-(1-(2-hydroxyethyl)-6-oxo-1,6-dihydropyridin-3-yl)-1H-pyrazol-5-yl)urea] | 8.15 | > 9.00 | 7.80 | 6.08 | 8.66 | 8.39 | 8.08 | −ve (−ve and +ve indicate that the value is below and above respectively, the no significant effect threshold, defined as 30% inhibition at 1 μg/mL at the time point indicated.) | −ve (−ve and +ve indicate that the value is below and above respectively, the no significant effect threshold, defined as 30% inhibition at 1 μg/mL at the time point indicated.) |
